Assay results from patent US6649647B1, “Trioxane derivatives” (priority 1998, dated 2003).

Columns and labels:
Format in all cases: cell-based
[1] = tested on: Rat 6 subclone of the immortalized F2408 embryo cell line (R6); test: Screening for cytotoxicity, cell count by Coulter Counter, R6 cells; settings: for LD50 (Day 3) R6: day 3 after addition; for LD50 (Day 6) R6: day 6 after addition
Experimental: (§1) Compounds of the invention were screened against Rat 6 subclone of the immortalized F2408 embryo cell line, and Rat 6 (R6T24) cells transfected and transformed by a c-H-ras oncogene. The screening involved placing the R6 and R6T24 cell lines plated at 10^3 cells per well into a 12-well microtiter culture plate for 24 hours. The compounds were added at final concentrations from 0.1-100 μM, and cells were trypsized and counted by Coulter Counter at day 3 and day 6 after the addition. Untreated cells were assigned a survival value of 100%.

[2] = tested on: Rat 6 (R6T24) cells transfected and transformed by a c-H-ras oncogene; test: Screening for cytotoxicity, cell count by Coulter Counter, R6T24 cells; settings: R6T24 cell line; for LD50 (Day 3) R6T24: day 3 after addition; for LD50 (Day 6) R6T24: day 6 after addition
Experimental: as §1

[3] = tested on: DNA within the cell; test: DNA comet assay; settings: cells after 3 or 6 day treatment
Text: In this technique, cells are embedded in agarose gel on a frosted slide after 3 or 6 day treatment, the cells are then lysed and submitted to electrophoresis. The DNA was stained after electrophoresis by ethidium bromide and images of the DNA “comets” were obtained by using an image analysis software package.

[4] = tested on: murine melanoma cell line B16F10; test: Growth inhibition assay (MTT), B16F10; settings: Table VI, 6 days incubation
Experimental: (§2) As another example of evaluation of cytotoxicity, cancer cell lines were also used for a growth inhibition assay. The human colon cancer cell lines SW 480 and HT 29 and the murine melanoma cell line B16F10 were used. […] After confluent growth, the cells were trypsinated and resuspended in RPMI plus 10% FCS to a cell concentration of 50000 cells per ml in case of colon cancer cell lines and 20000 in case of B16F10. 100 μl of this cell suspension were transferred in each well of a 96 well microtiter plate and incubated for 1 day at 37° C. in a CO2-incubator. Subsequently, further 100 μl RPMI medium and 1 μl of a DMSO solution, containing the artemisinin derivatives were added. The growth inhibition was estimated after 6 days incubation at 36° C. using the MTT assay.
(§3) 25 μl MTT solution (3-(4,5-dimethylthiazol-2-yl)-2,5-diphenyltetrazolium-bromid) of a starting concentration of 5 mg/ml H2O were added and incubated at 37° C. for 5 h. Subsequently, 100 μl iso-propanol per well were added. After 15 min incubation 100 μl H2O were added. After 30 min shaking, the extinction was measured at 595 nm using a ELISA-Multiplate Reader.

[5] = tested on: human colon cancer cell line HT 29; test: Growth inhibition assay (MTT), HT 29; settings: Table VI, 6 days incubation
Experimental: as §2, §3

[6] = tested on: human colon cancer cell line SW 480; test: Growth inhibition assay (MTT), SW 480; settings: Table VI, 6 days incubation
Experimental: as §2, §3

Compound | LD50 (Day 3) R6 ([1]; Table V) [µM] | LD50 (Day 6) R6 ([1]; Table V) [µM] | LD50 (Day 3) R6T24 ([2]; Table V) [µM] | LD50 (Day 6) R6T24 ([2]; Table V) [µM] | DNA damage in the DNA comet assay [3] | LD50 B16F18 [4] [nM] | LD50 (Day 3) R6 ([1]; Table VA) [µM] | LD50 (Day 6) R6 ([1]; Table VA) [µM] | LD50 (Day 3) R6T24 ([2]; Table VA) [µM] | LD50 (Day 6) R6T24 ([2]; Table VA) [µM] | LD50 HT 29 [5] [nM] | LD50 SW 480 [6] [nM] | binding to DNA (DNA comet assay technique) [3]
10α and β-[(2′-naphthylmethyl)oxy]dihydroartemisinin [Example 13] | 0.14 | 0.037 | 0.12 | 0.02 | strong DNA damage | – | – | – | – | – | – | – | –
C[C@@H]1CC[C@H]2[C@@H](C)C(c3cc4ccccc4c4ccccc34)O[C@@H]3O[C@@]4(C)CC[C@@H]1[C@]32OO4 (stereo partly drawn) [Example 56] | – | – | – | – | – | 300 | 0.38 | 0.26 | 0.24 | 0.21 | 300 | 200 | –
COc1ccc(C2OC3OC4(C)CCC5C(C)CCC(C2C)C35OO4)c(OC)c1 (stereo not drawn) [Example 4, 10-(2′,4′-dimethoxyphenyl)dihydroartemisinin] | 1.37 | 0.29 | 1.09 | 0.13 | strong DNA damage | – | 1.37 | 0.29 | 1.09 | 0.13 | – | – | –
CC1CCC2C(C)C(c3ccccc3)OC3OC4(C)CCC1C32OO4 (stereo not drawn) [Example 2, 10β-(phenyl)dihydroartemisinin] | 0.61 | 0.475 | 3.05 | 0.54 | – | 500 | 0.61 | 0.475 | 3.05 | 0.54 | 800 | 300 | –
CC1CCC2C(CN3CCc4ccccc43)C(=O)OC3OC4(C)CCC1C32OO4 (stereo not drawn) [Example 22, 16-(N-1′-indolinyl)artemisinin] | 24.77 | 29.24 | 11.38 | 7.45 | strong DNA damage | – | 25 | 29 | 12 | 7.5 | – | – | –
CC1CCC2[C@@H](C)C(O)OC3O[C@]4(C)CCC1C32OO4 (stereo partly drawn) [Dihydroartemisinin, dihydroartemisinin, reference compound] | 1.64 | 0.86 | 2.22 | 0.24 | – | – | 1.64 | 0.86 | 2.22 | 0.24 | – | – | does not bind to DNA
10α and β-[(2′-naphthylmethyl)oxy]dihydroartemisinin [Example 13α] | – | – | – | – | – | 300 | 0.14 | 0.037 | 0.12 | 0.02 | 500 | 200 | –
C[C@@H]1CC[C@H]2[C@@H](C)C(Nc3ccccc3)O[C@@H]3O[C@@]4(C)CC[C@@H]1[C@]32OO4 (stereo partly drawn) [Example 30] | 0.31 | 0.26 | 0.24 | 0.26 | – | 400 | 0.31 | 0.26 | 0.24 | 0.26 | 600 | 100 | –
C[C@@H]1CC[C@H]2[C@@H](C)C(=O)N(Cc3ccccc3F)[C@@H]3O[C@@]4(C)CC[C@@H]1[C@@]23OO4 [Example 15, 11-aza-N-(2-fluorobenzyl)artemisinin] | 22.70 | >50.00 | >50.00 | 1.69 | – | 300 | >50 | >50 | 22.7 | 1.69 | 1500 | 200 | –
Cc1cc(C)c(C2O[C@@H]3O[C@@]4(C)CC[C@H]5[C@H](C)CC[C@@H]([C@H]2C)[C@@]35OO4)c(C)c1 (stereo partly drawn) [Example 60] | – | – | – | – | – | 250 | – | – | – | – | 300 | 150 | –
CC1CCC2C(C)C(OCc3cccc(F)c3)OC3OC4(C)CCC1C32OO4 (stereo not drawn) [Example 78] | – | – | – | – | – | 200 | – | – | – | – | 1500 | 250 | –
CC1CCC2C(C)C(OCC(F)(F)F)OC3OC4(C)CCC1C32OO4 (stereo not drawn) [Example 11, 10β-[(2′,2′,2′-trifluoroethyl)oxy]-dihydroartemisinin] | 1.56 | 0.87 | 3.31 | 0.39 | – | 500 | 1.56 | 0.87 | 3.31 | 0.39 | 1500 | 500 | –
